Source: patent US9902696B2, “1,4-substituted piperidine derivatives” (Cephalon, Inc., priority 2015, dated 2018)
Structures can show the parent of a compound that is named as a salt.

biological target: T1, recombinant human baculovirus-expressed GST-tagged FASN (Homo sapiens, UniProt P49327); assay: FASN enzyme activity assay, fluorescence-based detection of CoA with CPM; type: biochemical; conditions: 5 nM FASN, 150 μM NADPH, 10 μM acetyl-CoA, 25 μM malonyl-CoA, 90 minutes incubation; read-out: IC50 data for Additional Compounds of Formulae I-V(a): Activity
T1 construct: GST
T1 sequence (P49327 whole entry): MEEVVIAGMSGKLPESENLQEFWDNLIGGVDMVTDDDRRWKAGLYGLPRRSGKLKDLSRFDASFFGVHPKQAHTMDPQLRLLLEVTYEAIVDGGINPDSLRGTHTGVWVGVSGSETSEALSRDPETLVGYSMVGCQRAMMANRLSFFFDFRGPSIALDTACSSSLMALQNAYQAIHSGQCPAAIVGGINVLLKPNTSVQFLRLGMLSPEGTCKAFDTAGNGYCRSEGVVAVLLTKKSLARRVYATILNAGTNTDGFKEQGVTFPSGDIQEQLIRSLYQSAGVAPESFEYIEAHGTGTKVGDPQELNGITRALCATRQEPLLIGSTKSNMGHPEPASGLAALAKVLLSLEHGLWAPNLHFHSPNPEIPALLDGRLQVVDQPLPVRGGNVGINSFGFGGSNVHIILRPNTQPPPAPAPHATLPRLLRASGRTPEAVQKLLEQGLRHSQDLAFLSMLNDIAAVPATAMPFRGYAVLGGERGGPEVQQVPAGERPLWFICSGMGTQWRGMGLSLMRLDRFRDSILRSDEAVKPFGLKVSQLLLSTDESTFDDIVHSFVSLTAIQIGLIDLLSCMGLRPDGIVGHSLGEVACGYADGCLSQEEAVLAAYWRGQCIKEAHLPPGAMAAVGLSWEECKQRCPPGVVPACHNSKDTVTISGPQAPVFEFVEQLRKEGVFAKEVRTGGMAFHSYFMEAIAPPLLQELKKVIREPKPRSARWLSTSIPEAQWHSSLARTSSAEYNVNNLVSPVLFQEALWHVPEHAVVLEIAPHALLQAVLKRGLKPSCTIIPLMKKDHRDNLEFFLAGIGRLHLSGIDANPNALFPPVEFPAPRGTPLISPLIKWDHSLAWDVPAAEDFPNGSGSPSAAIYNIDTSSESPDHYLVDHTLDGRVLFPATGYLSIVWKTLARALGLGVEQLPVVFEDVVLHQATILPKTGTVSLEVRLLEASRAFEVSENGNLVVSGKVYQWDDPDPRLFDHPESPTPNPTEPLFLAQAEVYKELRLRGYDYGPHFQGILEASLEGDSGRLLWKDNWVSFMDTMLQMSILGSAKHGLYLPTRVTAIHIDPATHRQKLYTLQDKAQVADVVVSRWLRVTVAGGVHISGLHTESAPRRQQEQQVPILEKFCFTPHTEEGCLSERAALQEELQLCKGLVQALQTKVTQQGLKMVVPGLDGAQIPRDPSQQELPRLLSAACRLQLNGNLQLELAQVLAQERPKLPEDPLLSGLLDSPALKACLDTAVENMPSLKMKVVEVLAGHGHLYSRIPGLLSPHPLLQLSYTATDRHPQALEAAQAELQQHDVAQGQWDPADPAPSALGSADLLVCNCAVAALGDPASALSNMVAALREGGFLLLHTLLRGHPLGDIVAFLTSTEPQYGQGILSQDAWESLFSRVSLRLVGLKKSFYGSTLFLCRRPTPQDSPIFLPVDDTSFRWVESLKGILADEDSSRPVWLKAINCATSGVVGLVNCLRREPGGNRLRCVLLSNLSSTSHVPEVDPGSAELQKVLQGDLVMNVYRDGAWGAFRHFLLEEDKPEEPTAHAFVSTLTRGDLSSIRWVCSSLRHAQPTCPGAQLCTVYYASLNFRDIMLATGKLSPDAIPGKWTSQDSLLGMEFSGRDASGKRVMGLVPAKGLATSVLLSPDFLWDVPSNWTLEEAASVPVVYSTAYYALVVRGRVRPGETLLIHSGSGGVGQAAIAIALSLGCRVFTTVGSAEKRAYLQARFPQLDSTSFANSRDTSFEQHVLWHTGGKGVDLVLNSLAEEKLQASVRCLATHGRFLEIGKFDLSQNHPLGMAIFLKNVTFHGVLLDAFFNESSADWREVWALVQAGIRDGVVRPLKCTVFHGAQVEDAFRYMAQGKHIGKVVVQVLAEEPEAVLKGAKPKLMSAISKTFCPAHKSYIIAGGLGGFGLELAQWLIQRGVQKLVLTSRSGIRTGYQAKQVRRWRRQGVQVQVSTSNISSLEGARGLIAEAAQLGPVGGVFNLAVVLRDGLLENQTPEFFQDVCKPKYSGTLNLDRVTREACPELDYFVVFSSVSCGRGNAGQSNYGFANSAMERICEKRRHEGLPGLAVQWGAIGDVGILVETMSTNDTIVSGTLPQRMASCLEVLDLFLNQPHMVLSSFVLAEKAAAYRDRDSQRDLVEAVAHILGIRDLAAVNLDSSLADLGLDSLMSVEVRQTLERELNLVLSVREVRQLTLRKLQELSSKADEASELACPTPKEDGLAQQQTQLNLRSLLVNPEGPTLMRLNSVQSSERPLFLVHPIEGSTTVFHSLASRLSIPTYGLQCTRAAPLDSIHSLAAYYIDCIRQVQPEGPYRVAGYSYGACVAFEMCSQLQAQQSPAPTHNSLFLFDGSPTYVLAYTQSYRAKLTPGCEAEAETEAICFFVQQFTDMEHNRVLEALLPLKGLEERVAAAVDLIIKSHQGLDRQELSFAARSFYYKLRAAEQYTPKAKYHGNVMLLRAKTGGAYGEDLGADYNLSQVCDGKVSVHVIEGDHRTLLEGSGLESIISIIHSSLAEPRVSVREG
Summary of the method: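 CoA product reacted with thiol-reactive CPM (diluted to 50 μM in 70% ethanol), read at 390/530 nm after 30 min. Preceding reaction: 90 min, 5 nM recombinant GST-FASN, 150 μM NADPH, 10 μM acetyl-CoA, 25 μM malonyl-CoA, pH 7.5 HEPES, 0.5% DMSO. IC50s fitted by nonlinear sigmoidal regression.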

IC50 [µM] | SMILES
1 to 10 | CCNC(=O)N1CCC(Oc2ccc(-c3ccc4ccnn4c3C)cc2)CC1 [Example 536, N-Ethyl-4-[4-(7-methylpyrazolo[1,5-a]pyridin-6-yl)phenoxy]piperidine-1-carboxamide]
0.001 to 0.099 | Cc1c(-c2ccc(OC3CCN(C(=O)NOC(C)C)CC3)cc2)ccc2ccnn12 [Example 537, N-Isopropoxy-4-[4-(7-methylpyrazolo[1,5-a]pyridin-6-yl)phenoxy]piperidine-1-carboxamide]
0.001 to 0.099 | CCONC(=O)N1CCC(Oc2ccc(-c3ccc4ccnn4c3C)cc2)CC1 [Example 538, N-Ethoxyoxy-4-[4-(7-methylpyrazolo[1,5-a]pyridin-6-yl)phenoxy]piperidine-1-carboxamide]
0.001 to 0.099 | CONC(=O)N1CCC(Oc2ccc(-c3ccc4ccnn4c3C)cc2)CC1 [Example 539, N-Methoxyoxy-4-[4-(7-methylpyrazolo[1,5-a]pyridin-6-yl)phenoxy]piperidine-1-carboxamide]
0.001 to 0.099 | Cc1c(-c2ccc(OC3CCN(C(=O)NCC4CC4)CC3)cc2)ccc2cccnc12 [Example 540, N-(Cyclopropylmethyl)-4-[4-(8-methyl-7-quinolyl)phenoxy]piperidine-1-carboxamide, HCl]
0.001 to 0.099 | Cc1c(-c2ccc(OC3CCN(C(=O)NCC(C)C)CC3)cc2)ccc2cccnc12 [Example 541, N-Isobutyl-4-[4-(8-methyl-7-quinolyl)phenoxy]piperidine-1-carboxamide, HCl]
0.001 to 0.099 | COCCNC(=O)N1CCC(Oc2ccc(-c3ccc4cccnc4c3C)cc2)CC1 [Example 542, N-(2-Methoxyethyl)-4-[4-(8-methyl-7-quinolyl)phenoxy]piperidine-1-carboxamide HCl]
1 to 10 | Cc1c(-c2ccc(OC3CCN(C(=O)NOC(C)C)CC3)cc2)ccc2cccnc12 [Example 543, N-Isopropoxy-4-[4-(8-methyl-7-quinolyl)phenoxy]piperidine-1-carboxamide]
0.001 to 0.099 | Cc1c(-c2ccc(OC3CCN(C(=O)NCCN(C)C)CC3)cc2)ccc2cccnc12 [Example 545, N-(2-Dimethylaminoethyl)-4-[4-(8-methyl-7-quinolyl)phenoxy]piperidine-1-carboxamide HCl]
1 to 10 | Cc1c(-c2ccc(OC3CCN(C(=O)OCCN4CCOCC4)CC3)cc2)ccc2cccnc12 [Example 546, 2-Morpholinoethyl 4-[4-(8-methyl-7-quinolyl)phenoxy]piperidine-1-carboxylate 2HCl]
1 to 10 | Cc1c(-c2ccc(OC3CCN(C(=O)OCCN4CCCC4)CC3)cc2)ccc2cccnc12 [Example 547, 2-Pyrrolidin-1-ylethyl 4-[4-(8-methyl-7-quinolyl)phenoxy]piperidine-1-carboxylate, 2HCl]
1 to 10 | Cc1c(-c2ccc(OC3CCN(C(=O)NCCc4c[nH]cn4)CC3)cc2)ccc2cccnc12 [Example 548, N-[2-(1H-Imidazol-4-yl)ethyl]-4-[4-(8-methyl-7-quinolyl)phenoxy]piperidine-1-carboxamide, 2HCl]
1 to 10 | Cc1c(-c2ccc(OC3CCN(C(=O)NC4CCOCC4)CC3)cc2)ccc2cccnc12 [Example 549, 4-[4-(8-Methyl-7-quinolyl)phenoxy]-N-tetrahydropyran-4-yl-piperidine-1-carboxamide, HCl]
1 to 10 | Cc1c(-c2ccc(OC3CCN(C(=O)OCC(C)C)CC3)cc2)ccc2cccnc12 [Example 550, Isobutyl 4-[4-(8-methyl-7-quinolyl)phenoxy]piperidine-1-carboxylate, HCl]
1 to 10 | C=CCOC(=O)N1CCC(Oc2ccc(-c3ccc4cccnc4c3C)cc2)CC1 [Example 551, Allyl 4-[4-(8-methyl-7-quinolyl)phenoxy]piperidine-1-carboxylate, HCl]
1 to 10 | Cc1c(-c2ccc(OC3CCN(C(=O)NC4CCC4)CC3)cc2)ccc2cccnc12 [Example 552, N-Cyclobutyl-4-[4-(8-methyl-7-quinolyl)phenoxy]piperidine-1-carboxamide HCl]
1 to 10 | Cc1c(-c2ccc(OC3CCN(C(=O)OCC4CC4)CC3)cc2)ccc2cccnc12 [Example 553, Cyclopropylmethyl 4-[4-(8-methyl-7-quinolyl)phenoxy]piperidine-1-carboxylate HCl]
1 to 10 | Cc1c(-c2ccc(OC3CCN(C(=O)NO)CC3)cc2)ccc2cccnc12 [Example 554, 4-[4-(8-Methyl-7-quinolyl)phenoxy]piperidine-1-carbohydroxamic acid, HCl]
1 to 10 | COCCOC(=O)N1CCC(Oc2ccc(-c3ccc4cccnc4c3C)cc2)CC1 [Example 555, 2-Methoxyethyl 4-[4-(8-methyl-7-quinolyl)phenoxy]piperidine-1-carboxylate, HCl]

IC50 [µM] | SMILES
1 to 10 | Cc1c(-c2ccc(OC3CCN(C(=O)OC4CCOCC4)CC3)cc2)ccc2cccnc12 [Example 556, Tetrahydropyran-4-yl 4-[4-(8-methyl-7-quinolyl)phenoxy]piperidine-1-carboxylate]
1 to 10 | Cc1c(-c2ccc(OC3CCN(C(=O)OC4CCCOC4)CC3)cc2)ccc2cccnc12 (stereo not shown) [Example 557, Tetrahydropyran-3-yl 4-[4-(8-methyl-7-quinolyl)phenoxy]piperidine-1-carboxylate]
1 to 10 | Cc1c(-c2ccc(OC3CCN(C(=O)N4CCCCO4)CC3)cc2)ccc2cccnc12 [Example 558, [4-[4-(8-Methyl-7-quinolyl)phenoxy]-1-piperidyl]-(oxazinan-2-yl)methanone]
0.001 to 0.099 | Cc1c(-c2ccc(OC3CCN(C(=O)OC4CCOC4)CC3)cc2)ccc2cccnc12 (stereo not shown) [Example 559, Tetrahydrofuran-3-yl 4-[4-(8-methyl-7-quinolyl)phenoxy]piperidine-1-carboxylate]
0.1 to 0.999 | Cc1c(-c2ccc(OC3CCN(C(=O)NCC4CCC4)CC3)cc2)ccc2cccnc12 [Example 560, N-(Cyclobutylmethyl)-4-[4-(8-methyl-7-quinolyl)phenoxy]piperidine-1-carboxamide]
1 to 10 | Cc1c(-c2ccc(OC3CCN(C(=O)OC4CCC4)CC3)cc2)ccc2cccnc12 [Example 561, Cyclobutyl 4-[4-(8-methyl-7-quinolyl)phenoxy]piperidine-1-carboxylate]
1 to 10 | Cc1c(-c2ccc(OC3CCN(C(=O)N4CCCCCC4)CC3)cc2)ccc2cccnc12 [Example 562, Azepan-1-yl-[4-[4-(8-methyl-7-quinolyl)phenoxy]-1-piperidyl]methanone]
1 to 10 | CCONC(=O)N1CCC(Oc2ccc(-c3ccc4nccn4c3Cl)cc2)CC1 [Example 573, 4-[4-(5-Chloroimidazo[1,2-a]pyridin-6-yl)phenoxy]-N-ethoxy-piperidine-1-carboxamide]
1 to 10 | CCCONC(=O)N1CCC(Oc2ccc(-c3ccc4nccn4c3Cl)cc2)CC1 [Example 576, 4-[4-(5-Chloroimidazo[1,2-a]pyridin-6-yl)phenoxy]-N-propoxy-piperidine-1-carboxamide]
0.001 to 0.099 | CCNC(=O)N1CCC(Oc2ccc(-c3ccc4nccn4c3C)cc2)CC1 [Example 592, N-Ethyl-4-[4-(5-methylimidazo[1,2-a]pyridin-6-yl)phenoxy]piperidine-1-carboxamide]
1 to 10 | Cc1c(-c2ccc(OC3CCN(C(=O)NCC(C)C)CC3)cc2)ccc2nccn12 [Example 593, N-Isobutyl-4-[4-(5-methylimidazo[1,2-a]pyridin-6-yl)phenoxy]piperidine-1-carboxamide]
0.001 to 0.099 | CCCNC(=O)N1CCC(Oc2ccc(-c3ccc4nccn4c3C)cc2)CC1 [Example 594, 4-[4-(5-Methylimidazo[1,2-a]pyridin-6-yl)phenoxy]-N-propyl-piperidine-1-carboxamide]
0.1 to 0.999 | Cc1c(-c2ccc(OC3CCN(C(=O)NCC4CC4)CC3)cc2)ccc2nccn12 [Example 595, N-(Cyclopropylmethyl)-4-[4-(5-methylimidazo[1,2-a]pyridin-6-yl)-phenoxy]piperidine-1-carboxamide]
0.001 to 0.099 | Cc1c(-c2ccc(OC3CCN(C(=O)Nc4cccnc4)CC3)cc2)ccc2nccn12 [Example 596, 4-[4-(5-Methylimidazo[1,2-a]pyridin-6-yl)phenoxy]-N-(3-pyridyl)piperidine-1-carboxamide]
1 to 10 | COCCNC(=O)N1CCC(Oc2ccc(-c3ccc4nccn4c3C)cc2)CC1 [Example 597, N-(2-Methoxyethyl)-4-[4-(5-methylimidazo[1,2-a]pyridin-6-yl)phenoxy]-piperidine-1-carboxamide]
0.1 to 0.999 | Cc1c(-c2ccc(OC3CCN(C(=O)N4CCN(C)CC4)CC3)cc2)ccc2nccn12 [Example 598, [4-[4-(5-Methylimidazo[1,2-a]pyridin-6-yl)phenoxy]-1-piperidyl]-(4-methylpiperazin-1-yl)methanone]
1 to 10 | Cc1c(-c2ccc(OC3CCN(C(=O)N(C)C)CC3)cc2)ccc2nccn12 [Example 599, N,N-Dimethyl-4-[4-(5-methylimidazo[1,2-a]pyridin-6-yl)phenoxy]piperidine-1-carboxamide]
0.1 to 0.999 | Cc1c(-c2ccc(OC3CCN(C(=O)NOC(C)C)CC3)cc2)ccc2nccn12 [Example 600, N-Isopropoxy-4-[4-(5-methylimidazo[1,2-a]pyridin-6-yl)phenoxy]piperidine-1-carboxamide]
1 to 10 | Cc1c(-c2ccc(OC3CCN(C(=O)OCC(C)C)CC3)cc2)ccc2nccn12 [Example 602, Isobutyl 4-[4-(5-methylimidazo[1,2-a]pyridin-6-yl)phenoxy]piperidine-1-carboxylate]

SMILES | IC50 [µM]
Cc1c(-c2ccc(OC3CCN(C(=O)NOCC(C)C)CC3)cc2)ccc2cccnc12 [Example 544, N-Isobutoxy-4-[4-(8-methyl-7-quinolyl)phenoxy]piperidine-1-carboxamide] | 0.001 to 0.099
Cc1c(-c2ccc(OC3CCN(C(=O)NOCC(C)C)CC3)cc2)ccc2nccn12 [Example 601, N-Isobutoxy-4-[4-(5-methylimidazo[1,2-a]pyridin-6-yl)phenoxy]piperidine-1-carboxamide] | 0.001 to 0.099
